From patent US6770676B2, “Dicarboxylic acid derivatives” (Taisho Pharmaceutical Co., Ltd., priority 2000, dated 2004)

Columns and labels:
[1] = target: T1, metabotropic glutamate receptors mGluR2 (Rattus norvegicus, UniProt P31421); assay: Effects of test compounds on cAMP accumulation (antagonism of glutamic acid suppression of Forskolin-stimulated cAMP) in CHO cells expressing mGluR2; assay type: cell-based; details: CHO cells stably expressing mGluR2; 50% inhibition of suppression by 30 μM glutamic acid of cAMP increase by 10^-5 M Forskolin; cAMP EIA kit
T1 construct: expressed in transfected cells
Protocol: Experimental Example (Effects of Test Compounds on cAMP Accumulation)
CHO cells stably expressing metabotropic glutamate receptors mGluR2 were seeded in a 96-well plate in the ratio of 1.26×10^4 cells/well/0.32 cm^2/150 μl in Dalbeco-modified Eagle medium [1% proline, 50 units/ml penicillin, 50 μg/ml streptomycin, 2 mM L-glutamine (added when used)] containing 10% dialyzed fetal bovine serum, and were cultured for 2 days at 37° C. under an atmosphere of 5% CO2. Subsequently, the medium was replaced with an L-glutamine free medium. Four hours later, the supernatant liquid was aspirated. […] A study was carried out for the antagonistic effects of the test compounds on the Forskolin stimulation cAMP accumulation quantity suppression [for control, the conditions were set with no addition of the compounds (Tanabe et al., Neuron, 8, 169-179 (1992))]. The reactions were quenched by adding 100 μl of ice-cooled ethanol, the entire quantity of the supernatant liquid was collected in a separate plate, and was subsequently dried up at normal temperature with an evaporator, followed by preservation at −20° C. In the dried-up samples, the quantity of cAMP was measured using a cAMP EIA kit (from the Amasham company). The control value was subtracted from each cAMP quantity. […]

T1 sequence (P31421 19-872): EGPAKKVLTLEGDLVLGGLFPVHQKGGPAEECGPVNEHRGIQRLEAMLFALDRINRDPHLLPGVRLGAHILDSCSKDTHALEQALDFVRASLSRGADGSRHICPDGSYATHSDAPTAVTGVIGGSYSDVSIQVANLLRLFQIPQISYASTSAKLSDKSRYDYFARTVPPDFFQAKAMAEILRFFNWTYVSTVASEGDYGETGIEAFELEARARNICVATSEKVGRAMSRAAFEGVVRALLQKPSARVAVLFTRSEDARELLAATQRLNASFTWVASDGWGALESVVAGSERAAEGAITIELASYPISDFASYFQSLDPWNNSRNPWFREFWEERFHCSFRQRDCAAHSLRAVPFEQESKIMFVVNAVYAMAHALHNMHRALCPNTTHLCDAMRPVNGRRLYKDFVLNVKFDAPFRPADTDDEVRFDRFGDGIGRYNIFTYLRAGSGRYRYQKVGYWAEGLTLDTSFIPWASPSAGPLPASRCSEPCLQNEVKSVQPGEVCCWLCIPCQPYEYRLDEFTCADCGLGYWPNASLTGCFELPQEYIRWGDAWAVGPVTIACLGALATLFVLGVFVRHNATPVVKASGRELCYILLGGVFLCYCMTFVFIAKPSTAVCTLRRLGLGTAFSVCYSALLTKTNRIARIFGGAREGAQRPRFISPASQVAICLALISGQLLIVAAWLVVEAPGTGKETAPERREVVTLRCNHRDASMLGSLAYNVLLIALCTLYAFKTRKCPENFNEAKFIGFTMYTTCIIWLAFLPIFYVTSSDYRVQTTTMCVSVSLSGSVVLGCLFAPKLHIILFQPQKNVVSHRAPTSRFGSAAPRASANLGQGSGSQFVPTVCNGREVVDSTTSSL

melting point	IC50 [1]	Compound
> 174 °C (dec.)		N[C@@]1(C(=O)O)C=C[C@@H]2[C@H]1[C@@]2(F)C(=O)O [Example 7, (1R,2S,5R,6R)-2-amino-6-fluoro-bicyclo[3.1.0]hex-3-ene-2,6-dicarboxylic acid]
> 172 °C (dec.)	476 nM	N[C@@]1(C(=O)O)[C@H](O)C[C@@H]2[C@H]1[C@@]2(F)C(=O)O [Example 8, (1R,2R,3R,5R,6R)-2-amino-6-fluoro-3-hydroxy-bicyclo[3.1.0]hexane-2,6-dicarboxylic acid]
